Holding throughout (format): cell-based
In assay [1] the test system is OE33: human esophageal cancer cells. The assay is described as follows: Tumor cell growth inhibition (CCK-8, 72 h), OE33. To be noted: 72 h incubation, read-out: IC50 for inhibiting the growth of tumor cells, OE33. The protocol:
(§1) • OE33: human esophageal cancer cells; • SK-BR-3: human breast cancer cells; • NCI-N87: human gastric cancer cells; • NCI-H1975: human lung cancer cells; • MDA-MB-231: human breast cancer cells; • NCI-H226: human lung squamous cell carcinoma cells; • TE12: human esophageal cancer cells.
(§2) Tumor cells OE33, SK-BR-3, NCI-N87, NCI-H1975, MDA-MB-231, NCI-H226, and TE12 were cultured separately in RPMI1640 (Cellmax) supplemented with 10% fetal bovine serum (Cellmax). Tumor cells in the exponential growth phase were diluted to a concentration of 1×10^5 cells/mL with culture medium and added to 96-well cell culture plates at 100 μL per well, then returned and incubated overnight in a 37° C. incubator with 5% CO2. On the following day, the compounds were diluted to concentrations of 10000 nM, 2000 nM, 400 nM, 80 nM, 16 nM, 3.2 nM, 0.64 nM, and 0.13 nM with culture medium, and the diluted compounds were added to the 96-well cell culture plates at 2 μL per well, with three replicate wells for each concentration. Negative control and blank control groups without addition of compounds were added with 2 μL of the dilution liquid per well. After the addition of the compounds, the plates were returned to the 37° C. incubator with 5% CO2 to continue the incubation for 72 h. After the incubation, the cell culture plates were removed, and the culture medium in the plates was aspirated using a pipette. Then, 100 μL of culture medium containing 10% CCK-8 was added to each well, and the plates were incubated at 37° C. for 3 h. After the incubation, the plates were removed, kept in the dark, and placed in an […]. Absorbance was measured at 630 nm as the reference wavelength and 450 nm as the test wavelength. Based on the absorbance values, the IC50 values (Table 1) were calculated using the four-parameter logistic regression method in GraphPad.

The test system of assay [2] is NCI-H226: human lung squamous cell carcinoma cells. The assay is described as follows: Tumor cell growth inhibition (CCK-8, 72 h), NCI-H226. To be noted: 72 h incubation, read-out: IC50 for inhibiting the growth of tumor cells, NCI-H226. Here is the method: as §1, §2
The test system of assay [3] is NCI-N87: human gastric cancer cells. The assay is described as follows: Tumor cell growth inhibition (CCK-8, 72 h), NCI-N87. To be noted: 72 h incubation, read-out: IC50 for inhibiting the growth of tumor cells, NCI-N87. The protocol:
as §1, §2

The test system of assay [4] is NCI-H1975: human lung cancer cells. Description: Tumor cell growth inhibition (CCK-8, 72 h), NCI-H1975. To be noted: 72 h incubation, read-out: IC50 for inhibiting the growth of tumor cells, NCI-H1975. Here is the method:
as §1, §2

In assay [5] the test system is TE12: human esophageal cancer cells. The assay is described as follows: Tumor cell growth inhibition (CCK-8, 72 h), TE12. To be noted: 72 h incubation, read-out: IC50 for inhibiting the growth of tumor cells, TE12. Here is the method:
as §1, §2

Assay [6] relates to SK-BR-3: human breast cancer cells. Description: Tumor cell growth inhibition (CCK-8, 72 h), SK-BR-3. To be noted: SK-BR-3 cells, 72 h incubation, read-out: IC50 for inhibiting the growth of tumor cells, SK-BR-3. The protocol:
as §1, §2

Assay [7] relates to MDA-MB-231: human breast cancer cells. The assay is described as follows: Tumor cell growth inhibition (CCK-8, 72 h), MDA-MB-231. To be noted: MDA-MB-231 cells, 72 h incubation, read-out: IC50 for inhibiting the growth of tumor cells, MDA-MB-231. The protocol: as §1, §2

Read-outs that look alike come from different tables or passages of the source.

Turning to `CC[C@@]1(O)C(=O)OCc2c1cc1n(c2=O)Cc2c-1nc1cc(F)c(C)c3c1c2[C@@H](NC(=O)[C@H](C)ONC)CC3` [Compound D3, N-(2′-methyl-2′-O—(N-methylamino)oxyacetyl)exatecan], the IC50 was found to be 3.8 nM in assay [1] (Homo sapiens); 7.65 nM in assay [2] (Homo sapiens); 1.69 nM in assay [3] (Homo sapiens); 36.9 nM in assay [4] (Homo sapiens); 18.5 nM in assay [5] (Homo sapiens); 4.84 nM in assay [6] (Homo sapiens). Also, the IC50 in assay [7] (Homo sapiens) is 237 nM.

Regarding `CC[C@@]1(O)C(=O)OCc2c1cc1n(c2=O)Cc2c-1nc1cc(F)c(C)c3c1c2[C@@H](NC(=O)CO)CC3` [Dxd, reference compound], the IC50 worked out at 7.01 nM in assay [1]; 75.1 nM in assay [2]; 2.48 nM in assay [3]; 25.7 nM in assay [4]; 21.5 nM in assay [5]; 9.69 nM in assay [6]. The half-maximal inhibitory concentration (IC50) in assay [7] was 320 nM.

`CC[C@@]1(O)C(=O)OCc2c1cc1n(c2=O)Cc2c-1nc1cc(F)c(C)c3c1c2[C@@H](NC(=O)C1(ONC)CCC1)CC3` [Compound D2, N-(1′-O—(N-methylamino)oxycyclobutane-1′-carbonyl)exatecan]: the IC50 in assay [1] (Homo sapiens) was found to be 1.95 nM; in assay [2] (Homo sapiens), 6.35 nM; in assay [3] (Homo sapiens), 1.11 nM; in assay [4] (Homo sapiens) it was 26.7 nM; in assay [5] (Homo sapiens), 13.6 nM; in assay [6] (Homo sapiens), 2.62 nM. Besides, in assay [7] (Homo sapiens), the IC50 was determined as 236 nM.

Turning to `[2H]C([2H])([2H])NOC([2H])([2H])C(=O)N[C@H]1CCc2c(C)c(F)cc3nc4c(c1c23)Cn1c-4cc2c(c1=O)COC(=O)[C@]2(O)CC` [Compound D4, N-(2′,2′-dideuterio-2′-O—(N-trideuteriomethylamino)oxyacetyl)exatecan], the IC50 in assay [1] (Homo sapiens) worked out at 5.56 nM; in assay [2] (Homo sapiens) it was 20.8 nM; in assay [3] (Homo sapiens) it was 3.68 nM; in assay [4] (Homo sapiens), 64.4 nM; in assay [5] (Homo sapiens), 33.1 nM; in assay [6] (Homo sapiens), 4.48 nM. Moreover, in assay [7] (Homo sapiens), the half-maximal inhibitory concentration (IC50) turned out to be 425 nM.

For the compound `CC[C@@]1(O)C(=O)OCc2c1cc1n(c2=O)Cc2c-1nc1cc(F)c(C)c3c1c2[C@@H](NC(=O)C1CNOC1)CC3` (stereo partly drawn) [Compound D5, N-(isoxazolidine-4′-carbonyl)exatecan], the IC50 in assay [1] (Homo sapiens) stood at 22.5 nM; in assay [2] (Homo sapiens) it was 49.7 nM; in assay [3] (Homo sapiens) it was 6.84 nM; in assay [4] (Homo sapiens) it was 97.4 nM; in assay [5] (Homo sapiens), 94.9 nM; in assay [6] (Homo sapiens), 15.4 nM. In addition, the IC50 in assay [7] (Homo sapiens) was 351 nM.

`[2H]C([2H])([2H])NOCC(=O)N[C@H]1CCc2c(C)c(F)cc3nc4c(c1c23)Cn1c-4cc2c(c1=O)COC(=O)[C@]2(O)CC` [Compound D1, N-(2′-O—(N-trideuteriomethylamino)oxyacetyl)exatecan]: the IC50 in assay [1] (Homo sapiens) was 4.32 nM; in assay [2] (Homo sapiens), 22.8 nM; in assay [3] (Homo sapiens), 2.44 nM; in assay [4] (Homo sapiens) it was 65 nM; in assay [5] (Homo sapiens), 36.7 nM; in assay [6] (Homo sapiens) it was 2.59 nM. Also, in assay [7] (Homo sapiens), the IC50 amounted to 183 nM.

As usually defined, the IC50 is the concentration at which inhibition is half-maximal.

The record behind these values is patent publication US20260200937A1, “EXATECAN HYD[…] USE THEREOF” (HANGZHOU ADCORIS BIOPHARMA CO., LTD, priority 2023, published 2026).
